Results: patent US10716769B2 (GUANGZHOU JTREAT BIOSCI. LTD., priority 2015, dated 2020)
Converted amounts (≈) assume the structure as drawn. Like-named read-outs stand apart in the source and are kept apart here.

Legend:
HIV-1 integrase = biological target: T1, HIV-1 integrase (Human immunodeficiency virus type 1 group M subtype B, UniProt P04585); assay: Test of sample inhibition to HIV-1 integrase (ELISA, strand transfer); type: biochemical; details: for inhibition at 109 µg/mL: read-out: IC50 (HIV-1 IN inhibition), dash
T1 construct: purified HIV-1 integrase is added to donor substrates coated 96-well plate; made in house
Protocol: The half-inhibitory concentration IC50 for 3′ excision of the substrate and the strand transfer is in the range of 88.92-10.20 μg/ml, in which the best inhibitory activity of the compound is higher than that of the monomer compound of hydroxybenzoic acid. The mechanism of the HIV-1 integrase is a two-step reaction: 1) 3′ Processing: the integrase binds to the specific sequences of the long terminal repeat region (LTR) of the proviral DNA to form a stable complex, then the endonucleotides of 3′ end of nucleoside is processed, and the GT dinucleotide of the sequence . . . […] Thus, the activity of the integrase inhibitor is embodied in inhibiting the excision of the 3′end of the viral DNA or the strand transfer, and is represented by a half-inhibitory concentration IC50.
In vitro integrase test, 30 synthetic oligonucleotides are used as donor substrates, 20 synthetic oligonucleotides are used as target substrates. Purified HIV-1 integrase is added to donor substrates coated 96-well plate, ELISA reaction is performed, the product of the strand transfer of target DNA is detected, color development is conducted by biotin-labeled alkaline phosphatase system, and the microplate reader is used to measure the OD value.
First, inhibitors of the enzyme may be screened by adding a sample to the reaction system. Before use, the sample is prepared with DMSO to an appropriate concentration, and then is diluted 5 times at 4 dilutions. The sample after dilution is added into the donor substrate coated 96-well plate, and then added to the reaction Buffer containing the genetically engineered target enzyme and the biotin-target substrate, incubated under optimal reaction conditions, and colored by biotin-labeled alkaline phosphatase system, and the OD value for absorbance value at 405 nm is measured.
30 synthetic oligonucleotides are used as donor substrates, 20 synthetic oligonucleotides are used as target substrates, purified HIV-1 integrase is added to donor substrates coated 96-well plate, ELISA reaction is performed, the product of the strand transfer of target DNA is detected, color development is conducted by biotin-labeled alkaline phosphatase system, and the OD value is measured by a microplate reader. The addition of samples to the reaction system can be used to screen inhibitors for the enzyme.
1. HIV-1 IN: it is extracted and saved by Chinese National New Drug Screening Center and Institute of Pharmaceutical Biotechnology under Chinese Academy of Medical Sciences.
2. Sample Treatment: 10 samples A1-A10 dissolved into DMSO prior to use are prepared into suitable concentrations, and then diluted 5 times at 4 dilutions. Donor substrate and target substrate are from Shanghai Biochemical Synthesis.
3. Method for Test: the samples after dilution are added into the donor substrate coated 96-well plate, then added to the reaction Buffer containing the genetically engineered target enzyme and the biotin-target substrate, incubated under optimal reaction conditions, and colored by biotin-labeled alkaline phosphatase system, and the OD value for absorbance value at 405 nm is measured.

HPV 6/11 Virus = assay: HPV detection via fluorescence quantitative PCR in genital warts tissue homogenate; design: species or system human papillomavirus; details: for HPV 6/11 virus detection, in words: 24 hours after addition into the tissue homogenate of genital warts; for HPV 6/11 Virus: genital warts tissue homogenate, 37° C., 24 hours, FQ-PCR
Excerpt: (§1) The aforesaid compounds and/or compositions containing the same are effective in killing and inhibiting HPV type 6/11 and type 16/18, which can be used for the preparation of drugs for preventing and treating viral infection of HPV, preventing and treating genital warts, flat warts, common warts, vaginitis, cervicitis and cervical erosion, cervical cancer, esophageal cancer and other cancers caused by HPV. The present invention observes the effect of active ingredients and products by the detection of the change in the amount of the HPV virus through the real-time quantitative PCR. Such method has been applied in several publications (Youling C A I, et al., Chinese STD/AIDS, 2002, 8: 2,108; Yuansheng W U, Ruijiang F A N, et al., Practical Application of Integrated Chinese and Western Medicine in Clinics, 2003, 3: 2,1).
(§2) The microemulsion obtained in example 1 is used as a test sample and saline for blank control.
(§3) The standard clinical genital warts specimens from a variety of patients after being cut off are washed with saline for removing bloods, and are cut into pieces under aseptic conditions, added with saline in 3 times of their volumes to be uniformly mixed, grinded into homogenate and placed at −40° C. for use.
(§4) Each test sample drug microemulsion and the saline of 50 μl for each are respectively added with 50 μl the genital warts tissue homogenate, and incubated at 37° C. for 24 hours; tests are performed according to the operation procedure provided by the HPV6, 11 and 16, 18 type FQ-PCR diagnostic kits provided by Da'an Gene Diagnostic Center. 0.2 ml of DNA extracted by the conventional alkaline lysis method is put into the thin-walled reaction tube, and simultaneously added with primers, F-PROBE, DNTP, DNA polymerase, buffers and the like in a certain concentration; ABI PRISM™ 7700 fluorescence quantitative PCR amplifier is used to repeat 40 circulations each with 45 s at 93° C. and 120 s at 55° C. after predegeneration at 93° C. for 2 mins; the quantitative results are automatically analyzed by the computer software to calculate the quantitative results of the initial copy number. The data are shown in Table 2 (completed by Da'an Gene Clinical Test Center).

HPV16/18 = assay: as above; design: species or system human papillomavirus; details: for HPV16/18 virus detection, in words: 24 hours after addition into the tissue homogenate of genital warts; for HPV16/18: genital warts tissue homogenate, 37° C., 24 hours, FQ-PCR
Excerpt: as §1, §2, §3, §4

HSV-II, SAV strain = assay: Inhibition of cytopathic effects of Vero cells caused by herpes virus type II; type: cell-based; details: for IC50: read-out: IC50 Against HSV-II
Excerpt: (§5) Vero cells (kidney cells of African green monkey) are used as viral hosts to test the inhibition degree of the samples to the cytopathic effects of Vero cells caused by herpes virus type I and type II.
(§6) Vero cells (kidney cells of African green monkey) are used as viral hosts to test the inhibition degree of the samples to cytopathic effects of the Vero cell caused by herpes virus type I and type II.
(§7) 1. Virus strains: HSV-I, VR733 strain, and HSV-II, SAV strain, which both are provided by ATCC.
(§8) 2. Sample treatment: the sample is dissolved in DMSO at an appropriate concentration before use, and diluted with the culture medium 3 times at a total of 8 dilutions for test.
(§9) 3. Positive control drug: acyclovir (ACV) produced by the Hubei Ke Yi pharmaceutical factory.

Vero cells = assay: Half toxic concentration in the anti-herpes screening; type: cell-based, African green monkey
Protocol: Vero cells (kidney cells of African green monkey) are used as viral hosts to test the inhibition degree of the samples to cytopathic effects of the Vero cell caused by herpes virus type I and type II. 2. Sample treatment: the sample is dissolved in DMSO at an appropriate concentration before use, and diluted with the culture medium 3 times at a total of 8 dilutions for test. 4.

HSV-I, VR733 strain = assay: Inhibition of cytopathic effects of Vero cells caused by herpes virus type I; type: cell-based; details: for IC50: read-out: IC50 Against HSV-1
Excerpt: as §5, §6, §7, §8, §9

[1] = Vero cells, CPE 48 hours, Reed-Muench

SMILES	IC50 (HIV-1 integrase) [µM]	HPV 6/11 virus detection, in words (HPV 6/11 Virus)	HPV 6/11 Virus (HPV 6/11 Virus)	HPV16/18 virus detection, in words (HPV16/18)	HPV16/18 (HPV16/18)	further results
O=C(c1ccccc1O)c1cccc(O)c1O [2,2′3′-trihydroxybenzophenone]	45.4	can no longer be detected	0 copy/ml	can no longer be detected	0 copy/ml	–
O=C(c1ccccc1O)c1ccccc1O [2,2′-dihydroxybenzophenone]	71.5	can no longer be detected	0 copy/ml	can no longer be detected	0 copy/ml	IC50 (HSV-II, SAV strain; Human alphaherpesvirus 2, Vero, 48 h): 28.7 µg/mL (≈ 134 µM); TC50 half toxic concentration (Vero cells): 64.15 µg/mL (≈ 299 µM); IC50 (HSV-I, VR733 strain; Human alphaherpesvirus 1, Vero, 48 h): 28.7 µg/mL (≈ 134 µM)
O=C(c1ccc(O)cc1O)c1cc(O)c(O)c(O)c1O [2,3,4,2′,4′,5-hexahydroxybenzophenone]	–	–	–	–	–	IC50 Against HSV-II (HSV-II, SAV strain; [1]): 28.74 µg/mL (≈ 103 µM); IC50 Against HSV-1 (HSV-I, VR733 strain; [1]): 28.74 µg/mL (≈ 103 µM)
O=C(O)c1cccc(O)c1O [2,3-dihydroxybenzoic acid, reference compound]	–	have a high concentration	2.30 × 10^4 copy/ml	have a high concentration	3.20 × 10^3 copy/ml	inhibition at 109 µg/mL (HIV-1 integrase): < 50%
O=C(O)c1cc(O)c(O)c(O)c1 [3,4,5-trihydroxybenzoic acid, reference compound]	591	–	0 copy/ml	–	0 copy/ml	–
O=C(O)c1ccc(O)c(O)c1 [3,4-dihydroxybenzoic acid, reference compound]	–	have a high concentration	1.90 × 10^4 copy/ml	have a high concentration	8.50 × 10^4 copy/ml	inhibition at 109 µg/mL (HIV-1 integrase): < 50%
Nc1nc2c(ncn2COCCO)c(=O)[nH]1 [ACV, acyclovir, reference compound]	–	–	–	–	–	IC50 (HSV-II, SAV strain; Human alphaherpesvirus 2, Vero cells, CPE 48 hours, Reed-Muench): 1.23 µg/mL (≈ 5.46 µM); IC50 (HSV-I, VR733 strain; Human alphaherpesvirus 1, Vero cells, CPE 48 hours, Reed-Muench): 1.09 µg/mL (≈ 4.85 µM)
